Source: ChEMBL document CHEMBL4825689, “Halting colorectal cancer metastasis via novel dual nanomolar MMP-9/MAO-A quinoxaline-based inhibitors; design, synthesis, and evaluation” (Eur J Med Chem, 2021)
Activity calls are given as the source filed them. The rule behind the calls is not given here.

Columns and labels:
[1] = Selectivity index, ratio of IC50 for albino rat epithelial rat to IC50 for human HCT116 cells overexpressing MMP9/MAO-A
HCT-116 [2] = test: Anticancer activity against human HCT-116 cells overexpressing MMP9/MAO-A by MTT assay; format: functional, cell-based
Epithelial cell = test: Cytotoxicity against albino rat epithelial rat by MTT assay; format: cell-based
[3] = target: T1, Amine oxidase [flavin-containing] A (Homo sapiens, UniProt P21397); test: Inhibition of MAO-A (unknown origin) by multi-well spectrophotometry
T1 sequence (P21397 whole entry): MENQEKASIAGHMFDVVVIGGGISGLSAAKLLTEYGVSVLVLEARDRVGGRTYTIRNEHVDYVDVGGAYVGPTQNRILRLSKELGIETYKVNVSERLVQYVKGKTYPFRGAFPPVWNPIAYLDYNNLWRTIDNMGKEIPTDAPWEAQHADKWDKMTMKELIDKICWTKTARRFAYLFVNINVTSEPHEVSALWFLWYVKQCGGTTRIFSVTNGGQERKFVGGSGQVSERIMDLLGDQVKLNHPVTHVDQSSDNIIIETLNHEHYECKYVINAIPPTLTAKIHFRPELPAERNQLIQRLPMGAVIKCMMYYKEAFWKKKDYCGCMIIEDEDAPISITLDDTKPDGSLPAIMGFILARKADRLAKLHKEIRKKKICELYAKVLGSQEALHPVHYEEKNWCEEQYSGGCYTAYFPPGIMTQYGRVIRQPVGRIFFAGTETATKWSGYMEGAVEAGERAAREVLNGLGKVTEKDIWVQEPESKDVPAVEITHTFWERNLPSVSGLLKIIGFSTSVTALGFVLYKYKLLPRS

[4] = target: T2, Matrix metalloproteinase-9 (Homo sapiens, UniProt P14780); test: Inhibition of MMP9 (unknown origin) by colorimetric assay
Homo sapiens = species: Homo sapiens; test: Selectivity for MAO-B (unknown origin) to MAO-A (unknown origin)
[5] = Suppression of HIF1alpha expression in human HCT116 cells assessed as fold change by qRT-PCR analysis; format: functional, HCT-116
[6] = target: T3, Amine oxidase [flavin-containing] B (Homo sapiens, UniProt P27338); test: Inhibition of MAO-B (unknown origin) by fluorometric assay
T3 sequence (P27338 whole entry): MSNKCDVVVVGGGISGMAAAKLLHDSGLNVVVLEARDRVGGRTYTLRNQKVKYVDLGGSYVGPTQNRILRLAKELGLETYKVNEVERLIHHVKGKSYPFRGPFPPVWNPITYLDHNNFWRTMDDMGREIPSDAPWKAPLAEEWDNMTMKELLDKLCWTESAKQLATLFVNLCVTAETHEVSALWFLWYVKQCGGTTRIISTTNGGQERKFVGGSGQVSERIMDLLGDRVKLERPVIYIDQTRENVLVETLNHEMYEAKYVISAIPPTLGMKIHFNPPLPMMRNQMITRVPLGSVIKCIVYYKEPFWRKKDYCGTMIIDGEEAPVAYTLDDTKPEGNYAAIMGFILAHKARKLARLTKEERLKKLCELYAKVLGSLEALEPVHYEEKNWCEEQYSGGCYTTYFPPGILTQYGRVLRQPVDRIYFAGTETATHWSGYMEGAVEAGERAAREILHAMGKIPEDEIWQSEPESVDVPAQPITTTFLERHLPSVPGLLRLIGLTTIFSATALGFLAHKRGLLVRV

HCT-116 [7] = test: Inhibition of cell migration in human HCT116 cells assessed as suppression of cell migration incubated for 20 hrs by wound healing assay relative to control; format: functional
HCT-116 [8] = test: Anticancer activity against human HCT116 cells overexpressing MMP9 assessed as shrinkage incubated for 72 hrs by morphology alteration assay; format: functional, cell-based
[9] = target: T2, Matrix metalloproteinase-9; test: Inhibition of MMP9 (unknown origin) at 1.3 uM by colorimetric assay relative to control

T2 sequence (P14780 whole entry): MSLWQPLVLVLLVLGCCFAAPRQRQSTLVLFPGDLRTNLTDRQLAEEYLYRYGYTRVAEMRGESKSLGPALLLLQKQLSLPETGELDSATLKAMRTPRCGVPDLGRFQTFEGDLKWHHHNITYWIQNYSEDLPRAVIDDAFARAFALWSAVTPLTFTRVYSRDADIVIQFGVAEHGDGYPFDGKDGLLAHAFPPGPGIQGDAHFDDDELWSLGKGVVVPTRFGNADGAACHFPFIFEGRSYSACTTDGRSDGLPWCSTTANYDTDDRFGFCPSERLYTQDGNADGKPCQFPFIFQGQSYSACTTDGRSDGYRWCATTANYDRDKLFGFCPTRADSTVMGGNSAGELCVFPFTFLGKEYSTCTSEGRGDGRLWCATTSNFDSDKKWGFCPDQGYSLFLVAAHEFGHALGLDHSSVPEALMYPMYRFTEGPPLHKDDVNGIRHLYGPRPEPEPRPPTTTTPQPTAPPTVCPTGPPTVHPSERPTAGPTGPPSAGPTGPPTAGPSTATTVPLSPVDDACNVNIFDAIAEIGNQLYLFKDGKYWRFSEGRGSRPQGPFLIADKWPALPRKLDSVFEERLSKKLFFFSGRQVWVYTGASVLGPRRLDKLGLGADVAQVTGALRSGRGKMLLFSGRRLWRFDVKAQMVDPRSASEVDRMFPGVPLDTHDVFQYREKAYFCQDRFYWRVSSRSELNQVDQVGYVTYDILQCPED

Row | Structure (SMILES) | IC50 (HCT-116 [2]) [nM] | IC50 [4] [nM] | Selectivity Index [1] | IC50 (Epithelial cell) [nM] | other results
1 | N=C(N)NS(=O)(=O)c1ccc(NC(=O)Cn2c(=O)c(Cc3ccccc3)nc3ccccc32)cc1 | 12.9 | – | 0.695 | 8.97 | –
2 | CC(C)(C)OC(=O)C(Cc1ccccc1)NC(=O)Cn1c(=O)c(Cc2ccccc2)nc2ccccc21 (configuration not stated) | 22.3 | – | 1.172 | 26.1 | IC50 ([3]; read-out: IC50): 15.2 nM
3 | O=C(Cn1c(=O)c(Cc2ccccc2)nc2ccccc21)NNC(=S)Nc1ccccc1 | 5.84 | 8.41 | 2.751 | 16.1 | Selectivity Index (Homo sapiens): 0.649; fold change (FC) [5]: >5; IC50 [6]: 6.81 nM; IC50 ([3]; read-out: IC50): 5.41 nM; inhibition (INH) (HCT-116 [7]): 21.27%
4 | O=c1c(O)c(-c2ccc(O)c(O)c2)oc2cc(O)cc(O)c12 [QUERCETIN] | – | 174 | – | – | –
5 | c1ccc(Cc2nc3ccccc3n3cnnc23)cc1 | – | – | – | – | IC50 ([3]; read-out: IC50): 0.7 nM
6 | COc1cc(/C=N/NC(N)=S)ccc1O | – | 106 | – | – | –
7 | O=C(CSc1nnc(-c2ccccc2)o1)NCc1ccc2c(c1)OCO2 | – | – | – | – | inhibition [9]: 30.5%
8 | CC(C)c1ccc(-n2nnc(-c3ccc(S(=O)(=O)NCC(=O)O)cc3)n2)cc1 | – | 110 | – | – | –
9 | C(=N\NC1Nc2ccccc2N=C1Cc1ccccc1)/c1ccccc1 (configuration not stated) | – | – | – | – | IC50 ([3]; read-out: IC50): 81 nM
10 | O=C(Cn1c(=O)c(Cc2ccccc2)nc2ccccc21)NN=c1c(=O)c2ccccc2c1=O | 18.6 | – | 0.435 | 7.98 | –
11 | COc1cccc2c1C(=O)c1c(O)c3c(c(O)c1C2=O)C[C@@](O)(C(=O)CO)C[C@@H]3O[C@H]1C[C@H](N)[C@H](O)[C@H](C)O1 [DOXORUBICIN] | 761 | – | 0.013 | 9.79 | –
12 | CNC(=O)C(Cc1ccccc1)NC(=O)C(CC(C)C)SC1CCCC1S (configuration not stated) | – | 0.57 | – | – | –
13 | C#CCN(C)CCCOc1ccc(Cl)cc1Cl [CLORGILINE] | – | – | – | – | IC50 [3]: Not Active
14 | Nn1c(Cn2c(=O)c(Cc3ccccc3)nc3ccccc32)nnc1Cn1c(=O)c(Cc2ccccc2)nc2ccccc21 | 14.9 | – | 0.405 | 6.04 | –

More lines, main results first:

Row | IC50 (HCT-116 [2]) [nM] | IC50 [4] [nM] | Structure (SMILES) | Selectivity Index [1] | IC50 (Epithelial cell) [nM] | other results
15 | 18.7 | – | O=c1c(Cc2ccccc2)nc2ccccc2n1CC(O)CCl (configuration not stated) | 0.954 | 16.3 | –
16 | 16200 | – | O=C1CC(=O)N(C(=O)Cn2c(=O)c(Cc3ccccc3)nc3ccccc32)N1 | 0.553 | 8.95 | –
17 | 18.3 | – | CCOC(=O)Cn1c(=O)c(Cc2ccccc2)nc2ccccc21 | 0.559 | 10.2 | –
18 | 36 | – | Nn1c(S)nnc1Cn1c(=O)c(Cc2ccccc2)nc2ccccc21 | 0.15 | 5.42 | –
19 | 7.4 | 4.5 | CCOC(=O)NNC(=O)Cn1c(=O)c(Cc2ccccc2)nc2ccccc21 | 5.266 | 38.9 | Activity (HCT-116 [8]): Active; Selectivity Index (Homo sapiens): 2.07; fold change (FC) [5]: >5; IC50 [6]: 11.2 nM; IC50 ([3]; read-out: IC50): 11.9 nM; inhibition (INH) (HCT-116 [7]): 28.82%
20 | 45.9 | – | O=c1c(Cc2ccccc2)nc2ccccc2n1Cc1nnco1 | – | 9.84 | –
21 | 15.8 | – | O=C(O)Cn1c(=O)c(Cc2ccccc2)nc2ccccc21 | 0.844 | 13300 | –
22 | 5.57 | 5.07 | NC(=S)NNC(=O)Cn1c(=O)c(Cc2ccccc2)nc2ccccc21 | 9.648 | 53.7 | Selectivity Index (Homo sapiens): 1.33; fold change (FC) [5]: >11.02; IC50 [6]: 7.09 nM; IC50 ([3]; read-out: IC50): 10.5 nM; inhibition (INH) (HCT-116 [7]): 61.29%
23 | 16.5 | – | O=C(Cn1c(=O)c(Cc2ccccc2)nc2ccccc21)OCCNCCO | – | 5.03 | –
24 | 19.8 | – | O=c1c(Cc2ccccc2)nc2ccccc2n1Cc1nnc(S)n1-c1ccccc1 | – | 7.78 | –
25 | 14.7 | – | NNC(=O)Cn1c(=O)c(Cc2ccccc2)nc2ccccc21 | 0.729 | 10.6 | –
26 | 7.64 | 23.1 | Cc1ccc(C(=O)NNC(=O)Cn2c(=O)c(Cc3ccccc3)nc3ccccc32)cc1 | 6.51 | 49.7 | Activity (HCT-116 [8]): Active; Selectivity Index (Homo sapiens): 1.88; fold change (FC) [5]: >15.94; IC50 [6]: 28.6 nM; IC50 ([3]; read-out: IC50): 5.33 nM; inhibition (INH) (HCT-116 [7]): 73.32%
27 | 8.81 | 9.3 | O=c1c(Cc2ccccc2)nc2ccccc2n1CC(O)CO (configuration not stated) | 5.52 | 48.7 | Activity (HCT-116 [8]): Active; Selectivity Index (Homo sapiens): 0.921; fold change (FC) [5]: >5; IC50 [6]: 11 nM; IC50 ([3]; read-out: IC50): 24 nM; inhibition (INH) (HCT-116 [7]): 27.48%
28 | 16300 | – | O=C(Cn1c(=O)c(Cc2ccccc2)nc2ccccc21)N/N=C/c1ccccc1O | 0.508 | 8.12 | –
29 | 10.7 | – | O=c1c(Cc2ccccc2)nc2ccccc2n1Cc1nnc(S)o1 | 0.512 | 5.29 | –
